According to patent publication US6114537A, “Process for scavenging thiols” (Apotex Inc., priority 1997, dated 2000):

Assays:
[1] = Reaction with benzyl mercaptan; format: physicochemical; settings: organic solvent such as methanol
From the text: The chemical reactivity of monocyclic 1,2,4-thiadiazole as thiol trapping agent depends on the substituent at the 3 and 5 position of the ring system.

Cathepsin L = Cathepsin L (Homo sapiens, UniProt P07711); assay: Inhibition of Cathepsin L, enzyme assay and kinetic measurements; format: biochemical; settings: for kinact/KI: approximates kon, read-out: kabs /[inh] (cathepsin L); for inhibition at 5 µM: 5 μM [inhibitor]
Cathepsin L, sequence (P07711 114-333): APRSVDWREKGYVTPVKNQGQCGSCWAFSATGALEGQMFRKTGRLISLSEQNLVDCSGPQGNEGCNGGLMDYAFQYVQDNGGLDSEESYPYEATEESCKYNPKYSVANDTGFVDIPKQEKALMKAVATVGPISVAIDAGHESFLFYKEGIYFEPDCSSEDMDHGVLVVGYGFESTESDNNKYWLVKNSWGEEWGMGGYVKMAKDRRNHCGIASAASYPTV
From the text: (§1) Inhibition of Cathepsin B, Cathepsin L and Papain by 1,2,4-thiadiazoles and 1,2,4-thiadiazole[4,5-a]benzimidazole derivatives: Enzyme Assays and Kinetic Measurements
(§2) Conditions for the above experiments can be found in the following references: Menard R. et al., Biochemistry 1990, 29, 6706-6713; Fox T. et al., Biochemistry 1992, 31, 12571-12576; Cannona E. et al., Biochemistry 1996, 35, 8149-8157. A typical experiment consisted of choosing an inhibitor concentration such that maximum inhibition could be achieved in less than two hours, monitoring the complete progress curve (i.e. fluorescence vs time), and analyzing the data. The analysis yield two parameters: the % inhibition once steady state was re ached, and a rate constant which represents the rate at which this steady state is reached. Typically, the enzyme activity decreases with time until the maximum level of inhibition is reached (i.e. steady state) where the enzyme activity remains constant. Since significant levels of activity could still be detected at steady state (i.e. inhibition is not complete), the data was fitted to equation (1), which is normally used for slow-binding reversible inhibitors. [formula]
(§3) % inhibition=(1-v1 /vo).100 (2)
(§4) In this equation, [P] represents the concentration of product (obtained from the flourescene readings), kabs is the first order rate constant to reach steady state, vo is the initial rate which corresponds to the rate in the absence of the inhibitor, and vi is the rate of the inhibited enzyme at steady state. The % inhibition was obtained by using equation (2), where the rate measured in the absence of the inhibitor was used for vo. An example of a simple mechanism for such a process is given below: [formula] For this mechanism, the value of kabs determined experimentally would correspond to:
(§5) The value of kabs varies with inhibitor concentration. Often koff is much slower than kon [inh] and kabs /[inh] can be used to approximate kon. This approach is used in this study and the results are shown in below: […]

Papain = target: T1, Papain (Carica papaya, UniProt P00784); assay: Inhibition of Papain, enzyme assay and kinetic measurements; format: biochemical; settings: for kinact/KI: approximates kon, read-out: kabs /[inh] (papain); for inhibition at 200 µM: 200 μM [inhibitor] (printed 200 μm); for inhibition at 1 µM: 1 μM [inhibitor]
T1 sequence (P00784 134-345): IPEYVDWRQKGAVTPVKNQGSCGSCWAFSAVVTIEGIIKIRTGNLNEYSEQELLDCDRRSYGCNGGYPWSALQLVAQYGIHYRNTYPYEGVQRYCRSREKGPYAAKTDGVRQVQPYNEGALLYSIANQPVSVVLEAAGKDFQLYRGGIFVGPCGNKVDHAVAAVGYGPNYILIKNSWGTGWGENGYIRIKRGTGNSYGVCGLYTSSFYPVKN
From the text: as §1, §2, §3, §4, §5

Cathepsin B = Cathepsin B (Rattus norvegicus, UniProt P00787); assay: Inhibition of Cathepsin B, enzyme assay and kinetic measurements; format: biochemical; settings: for kinact/KI: approximates kon, read-out: kabs /[inh] (cathepsin B); for inhibition at 200 µM: 200 μM [inhibitor]
Cathepsin B, sequence (P00787 80-339): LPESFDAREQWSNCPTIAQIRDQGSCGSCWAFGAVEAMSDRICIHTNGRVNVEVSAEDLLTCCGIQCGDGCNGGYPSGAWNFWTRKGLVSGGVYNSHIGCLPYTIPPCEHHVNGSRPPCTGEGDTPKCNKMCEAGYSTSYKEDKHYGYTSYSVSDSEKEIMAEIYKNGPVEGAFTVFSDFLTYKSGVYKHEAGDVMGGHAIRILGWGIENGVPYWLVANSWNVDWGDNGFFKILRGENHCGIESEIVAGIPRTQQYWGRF
From the text: as §1, §2, §3, §4, §5

hog H^+ /K^+ ATPase = target: T2, hog H^+ /K^+ ATPase (Sus scrofa, UniProt P19156); assay: Gastric ATPase enzyme inhibition assay; format: biochemical; settings: hog gastric vesicles, K+ stimulated ATP hydrolysis
T2 construct: Potassium stimulated ATP hydrolysis using hog gastric (GI) vesicles; from tissue; host or cells: hog gastric (GI) vesicles
T2 sequence (P19156 2-1034 limits assumed): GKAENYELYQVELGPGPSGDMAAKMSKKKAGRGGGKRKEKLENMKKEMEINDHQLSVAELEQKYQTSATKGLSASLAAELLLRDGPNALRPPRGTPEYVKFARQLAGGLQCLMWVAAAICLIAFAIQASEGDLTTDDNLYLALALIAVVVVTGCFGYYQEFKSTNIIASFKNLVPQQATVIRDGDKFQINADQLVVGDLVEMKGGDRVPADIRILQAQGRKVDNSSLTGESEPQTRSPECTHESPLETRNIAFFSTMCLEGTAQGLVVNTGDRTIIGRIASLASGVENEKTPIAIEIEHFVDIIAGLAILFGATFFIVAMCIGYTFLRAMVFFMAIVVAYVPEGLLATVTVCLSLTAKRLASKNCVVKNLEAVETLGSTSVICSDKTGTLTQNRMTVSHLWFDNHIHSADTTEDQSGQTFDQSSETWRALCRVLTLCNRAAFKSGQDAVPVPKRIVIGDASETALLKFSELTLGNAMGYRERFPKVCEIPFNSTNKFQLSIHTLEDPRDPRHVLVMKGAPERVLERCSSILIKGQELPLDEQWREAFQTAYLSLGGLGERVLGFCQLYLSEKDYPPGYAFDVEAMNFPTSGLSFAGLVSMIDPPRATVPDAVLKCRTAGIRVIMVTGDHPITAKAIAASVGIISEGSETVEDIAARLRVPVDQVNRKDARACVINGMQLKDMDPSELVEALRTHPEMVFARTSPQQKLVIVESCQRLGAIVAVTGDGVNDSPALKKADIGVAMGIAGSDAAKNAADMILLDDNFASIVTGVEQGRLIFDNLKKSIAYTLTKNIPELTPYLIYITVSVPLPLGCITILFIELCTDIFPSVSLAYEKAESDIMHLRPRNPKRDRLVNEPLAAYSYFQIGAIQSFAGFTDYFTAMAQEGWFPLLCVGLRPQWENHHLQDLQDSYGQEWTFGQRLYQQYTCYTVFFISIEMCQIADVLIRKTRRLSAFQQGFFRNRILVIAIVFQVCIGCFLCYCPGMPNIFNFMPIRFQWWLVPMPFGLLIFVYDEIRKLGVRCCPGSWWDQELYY
T2 sequence (P18434 whole entry partner): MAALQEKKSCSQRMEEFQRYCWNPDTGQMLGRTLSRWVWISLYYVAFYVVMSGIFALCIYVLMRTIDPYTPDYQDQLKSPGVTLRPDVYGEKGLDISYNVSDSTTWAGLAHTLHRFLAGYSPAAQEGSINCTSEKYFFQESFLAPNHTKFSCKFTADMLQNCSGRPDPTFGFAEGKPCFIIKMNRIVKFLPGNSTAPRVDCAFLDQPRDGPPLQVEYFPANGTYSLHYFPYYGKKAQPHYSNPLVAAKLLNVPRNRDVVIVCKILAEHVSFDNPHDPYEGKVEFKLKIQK
Description: Gastric ATPase enzyme inhibition assay
The enzyme used is the hog H^+ /K^+ ATPase (Sachs, et al. J. Biol. Chem. 251:7690-7698, 1976). A modified procedure reported by Yoda A. and Hokin, L.E., Biochem. Res. Commun., 1970, 800-884 is used. Potassium stimulated ATP hydrolysis using hog gastric (GI) vesicles, a preparation enriched in H^+ /K^+ ATPase, is measured.
The difference between activity in the presence of Mg^++ and presence of Mg^++ and K^+ 0 is taken as enzyme activity. Nigericin, a K^+ ionophore, is also present in the (+)K^+ incubation mixture to provide access of K^+ to the vesicle interior. Hydrolysis activity is measured by quantitative analysis of a phosphomolybdate complex. […] The optical density of many drugs used for the inhibition of H^+ /K^+ ATPase interfere in this wavelength. Therefore, a modification of the as say was used wherein the phosphomolybdate complex was reduced with Fiske and Subbarow reducer (1-amino-2-naphthol-4-[…] plus sodium sulfite). This shifts the optical density from 3 20 nm for the oxidized phosphomolybdate complex to 600-700 nm. This modification has the added advantage of providing a means of automated assay when multiple samples being tested. In this modification, the optical density of the assay mixtures was read at 700 nm.
Basal Mg^++ levels are measured in […], 2 mM Na2 ATP, 40 mM Pipes-tris, pH 6.10. 20 mM KCl and 10 μg/ml nigericin is added to determine the extent of stimulation by K^+. Test compounds or vehicle are then added. Enzyme (10 μg/ml) is then added to initiate the reaction. The final volume is 200 μl. The protocol for these assays is shown below.
Zero blanks (water controls) and phosphate standards (200 μl) are added appropriate for assays used: […], 0.050, 0.075, 0.1 . . . 0.5 mM standards. The order of the addition of reagents generally follows as described above. However, it may be more preferable to add either enzyme before ATP if it is important to provide time for pre-cubation with test compounds. Time additions of the last reagent are used to provide a uniform assay time.
The reaction is run for 30 min. to 1 hour. The re action is stopped by addition of 50 μl of a solution prepared by adding 4 volumes of 2.5 M sulfric acid plus one volume of 1.25% (w/v) Fiske and Subbarow reagent. Colour is developed at room temperature for ten minutes and optical density at 700 nm is determined. In the event that a white precipitate forms, the clear supernatants (after mixing and setting) can be used for the determination of enzyme activity.

[2] = Acid stability in 6 molar hydrochloric acid; format: physicochemical; settings: room temperature
Description: Acid stability of 7-methoxy-3-[(4-methoxy-3,5-dimethyl-2-pyridyl)oxomethyl]-1,2,4-thiadiazolo[4,5-a]benzimidazole.
To examine acid stability of the captioned compound, the compound was dissolved in a minimum volume of methanol and the resulting solution was added to a 6 molar solution of hydrochloric acid.

[3] = steady state, 50 μM [inhibitor]
[4] = steady state, 200 μM [inhibitor] (printed 200 μm)

Cc1nsc(NCc2ccccc2)n1 [3-methyl-5-benzylamino-1,2,4-thiadiazole]
reaction with benzyl mercaptan [1]: do not react with benzyl mercaptan

CC(C)CCNC(=O)[C@H](CC(C)C)NC(=O)c1nsc2nc3ccccc3n12 [{1,2,4-thiadiazolo[4,5-a]benzimidazol-3-yl}-carbonyl-L-leucyl isoamylamide]
kinact/KI (Cathepsin L): 307 M⁻¹ s⁻¹
inhibition at 5 µM (Cathepsin L; steady state): 93%
kinact/KI (Papain): 500 M⁻¹ s⁻¹
inhibition at 5 µM (Papain; steady state, 5 μM [inhibitor]): 95%

COC(=O)[C@@H]1CCCN1c1nsc2nc3ccccc3n12 [1,2,4-thiadiazolo [4,5-a]benzimidazol-3-yl-L-proline methyl ester]
kinact/KI (Cathepsin L): 1050 M⁻¹ s⁻¹
inhibition at 10 µM (Cathepsin L; steady state, 10 μM [inhibitor]): 99%
kinact/KI (Papain): 356 M⁻¹ s⁻¹
inhibition at 0.26 µM (Papain; steady state, 0.26 μM [inhibitor]): 97%
kinact/KI (Cathepsin B): 626 M⁻¹ s⁻¹
inhibition at 10 µM (Cathepsin B; steady state, 10 μM [inhibitor], % sign not given): 88%

c1ccc2c(c1)nc1snc(OCCN3CCOCC3)n12 [3-[2-(N-morpholino)ethoxy]-1,2,4-thiadiazolo[4,5-a]benzimidazole]
kinact/KI (Cathepsin L): 356 M⁻¹ s⁻¹
inhibition at 25 µM (Cathepsin L; steady state, 25 μM [inhibitor]): 99%
kinact/KI (Papain): 5560 M⁻¹ s⁻¹
inhibition at 0.66 µM (Papain; steady state, 0.66 μM [inhibitor]): 99.6%
kinact/KI (Cathepsin B): 107 M⁻¹ s⁻¹
inhibition at 50 µM (Cathepsin B; [3]): 91%

c1ccc2c(c1)nc1snc(NCCN3CCOCC3)n12 [3-[2-(N-morpholino)ethylamino]l,2,4-thiadiazolo-[4,5-a]benzimidazole]
EC50 (hog H^+ /K^+ ATPase): 200 nM

COc1ccc2[nH]c([S+]([O-])Cc3ncc(C)c(OC)c3C)nc2c1 (stereo not shown) [Omeprazole, reference compound]
acid stability [2]: complete decomposition in a few minutes

O=C(O)c1nsc2nc3ccccc3n12 [sodium 3-carboxylato-1,2,4-thiadiazolo[4,5-albenzimidazole]
kinact/KI (Cathepsin L): 184 M⁻¹ s⁻¹
inhibition at 50 µM (Cathepsin L; [3]): 98%
kinact/KI (Papain): 131 M⁻¹ s⁻¹
inhibition at 200 µM (Papain; steady state): 99.6%
kinact/KI (Cathepsin B): 34 M⁻¹ s⁻¹
inhibition at 200 µM (Cathepsin B; steady state): 85%

Cc1nsc(N(Cc2ccccc2)Cc2ccccc2)n1 [3-methyl-5-dibenzylamino-1,2,4-thiadiazole]
reaction with benzyl mercaptan [1]: do not react with benzyl mercaptan

O=C(c1ccccn1)c1nsc2nc3ccccc3n12 [3-[oxo(2-pyridyl)methyl]-1,2,4-thiadiazolo [4,5-a]benzimidazole]
kinact/KI (Cathepsin L): 68 M⁻¹ s⁻¹
inhibition at 200 µM (Cathepsin L; [4]): 99%
kinact/KI (Papain): 2480 M⁻¹ s⁻¹
inhibition at 1 µM (Papain; steady state): 79%
kinact/KI (Cathepsin B): 15 M⁻¹ s⁻¹
inhibition at 200 µM (Cathepsin B; steady state): 58%

CN1CCN(c2nsc3nc4ccccc4n23)CC1 [3-(4-methyl-1-piperazinyl)-1,2,4-thiadiazolo-[4,5-a]benzimidazole]
kinact/KI (Cathepsin L): 24 M⁻¹ s⁻¹
inhibition at 200 µM (Cathepsin L; [4]): 98%
kinact/KI (Papain): 28 M⁻¹ s⁻¹
inhibition at 200 µM (Papain; steady state): 99%
EC50 (hog H^+ /K^+ ATPase): 2000 nM
kinact/KI (Cathepsin B): 19 M⁻¹ s⁻¹
inhibition at 200 µM (Cathepsin B; steady state): 68%

c1ccc2c(c1)nc1snc(CN3CCOCC3)n12 [3-(morpholinomethyl)-1,2,4-thiadiazolo[4,5-a]benzimidazole]
kinact/KI (Cathepsin L): 7 M⁻¹ s⁻¹
inhibition at 200 µM (Cathepsin L; steady state, 200 μM [inhibitor], % sign not given): 80%
kinact/KI (Papain): 7 M⁻¹ s⁻¹
inhibition at 200 µM (Papain; steady state): 92%
EC50 (hog H^+ /K^+ ATPase): 200 nM
kinact/KI (Cathepsin B): 8 M⁻¹ s⁻¹
inhibition at 200 µM (Cathepsin B; steady state): 60%

COc1nsc(NC(=O)N[C@@H](CC(C)C)C(=O)NCCC(C)C)n1 [Example T11AA]
kinact/KI (Cathepsin L): 3480 M⁻¹ s⁻¹
inhibition at 5 µM (Cathepsin L; steady state): 99%
kinact/KI (Papain): 3900 M⁻¹ s⁻¹
inhibition at 1 µM (Papain; steady state): 97%
kinact/KI (Cathepsin B): 1060 M⁻¹ s⁻¹
inhibition at 5 µM (Cathepsin B; steady state, 5 μM [inhibitor]): 56%

c1ccc2c(c1)nc1snc(N3CCNCC3)n12 [3-(1-piperazinyl)-1,2,4-thiadiazolo[4,5-a]benzimidazole]
EC50 (hog H^+ /K^+ ATPase): 1000 nM

COc1nsc(N)n1 [3-methoxy-5-amino-1,2,4-thiadiazoles, 5-amino-3-methoxy-1,2,4-thiadiazole]
reaction with benzyl mercaptan [1]: reacted with benzyl mercaptan

c1cncc(-c2nsc(-c3cccnc3)n2)c1 [3,5-di(3-pyridyl)-1,2,4-thiadiazole]
reaction with benzyl mercaptan [1]: do not react with benzyl mercaptan
